This is an account of results in US8816085B2 (Takeda GmbH, priority 2009, dated 2014).

The structures appear in SMILES notation. Bounds are passed on as bounds.

This assay addresses T1, PDE5A1 (human PDE5 from platelets) (Homo sapiens, UniProt O76074).
T1 construct: from tissue; host or cells: platelets from fresh blood of human donors (10,000 g supernatant of sonified platelets)
Put plainly: Inhibition of type 5 phosphodiesterase (PDE5) activity, modified SPA test. The class given is biochemical. The following applies: PDE5-containing human platelet lysate, 0.5 μM cGMP, value classes, read-out: PDE5A1 inhibitory values [measured as −logIC50 (mol/l)] (converted). The method, then: Method for Measuring Inhibition of the Type 5 Phosphodiesterase (PDE5) Activity:
As a source for human PDE5, platelets are used. For that purpose, 150 ml fresh blood from human donors anticoagulated with citrate [final concentration 0.3% (w/v)] is centrifuged at 200 g for 10 min to obtain the so-called platelet-rich-plasma (PRP) as a supernatant. 1/10 volume of ACD solution (85 mM Na3-citrate, 111 mM D-glucose, 71 mM citric acid, pH 4.4) is added to 9/10 volume of PRP. After centrifugation (1,400 g, 10 min) the cell pellet is resuspended in 3 ml homogenization buffer (NaCl 140 mM, KCl 3.8 mM, EGTA (ethylene glycol tetraacetic acid) 1 mM, MgCl2 1 mM, Tris-HCl 20 mM, beta-mercaptoethanol 1 mM, pH 8.2) plus protease-inhibitor mix giving rise to the final concentrations of 0.5 mM Pefablock (Roche), 10 μM Leupeptin, 5 μM Trypsininhibitor, 2 mM Benzamidin and 10 μM Pepstatin A. The suspension is sonified and thereafter centrifuged for 15 min at 10,000 g. The resulting supernatant (platelet lysate) is used for enzymatic testings.
PDE5A1 activity is inhibited by the compounds of the present subject matter in a modified SPA (scintillation proximity assay) test, supplied by Amersham Biosciences (see procedural instructions “phosphodiesterase [3H]cAMP SPA enzyme assay, code TRKQ 7090”), carried out in 96-well microtitre plates (MTP's). The test volume is 100 μl and contains 20 mM Tris buffer (pH 7.4), 0.1 mg of BSA (bovine serum albumin)/ml, 5 mM Mg^2+, 1 μM motapizone, 10 nM PDE2 inhibitor 2-(3,4-dimethoxybenzyl)-7-[(1R,2R)-2-hydroxy-1-(2-phenylethyl)propyl]-5-methylimidazo[5,1-t][1,2,4]triazin-4(3H)-one, 0.5 μM cGMP (cyclic guanosine monophosphate) (including about 50,000 cpm of [3H]cGMP as a tracer), 1 μl of the respective compound dilution in dimethylsulfoxide (DMSO) and sufficient PDE5-containing platelet lysat (10,000×g supernatant, see above) to ensure that 10-20 wt % of the cGMP is converted under the said experimental conditions. […] After a preincubation of 5 min at 37° C., the reaction is started by adding the substrate (cGMP) and the assay is incubated for a further 15 min; after that, it is stopped by adding SPA beads (50 μl). In accordance with the manufacturer's instructions, the SPA beads had previously been resuspended in water, but are then diluted 1:3 (v/v) in water; the diluted solution also contains 3 mM 8-methoxymethyl-3-isobutyl-1-methylxanthine (IBMX) to ensure a complete PDE activity stop. After the beads have been sedimented (>30 min), the MTP's are analyzed in commercially available luminescence detection devices. The corresponding IC50 values of the compounds for the inhibition of PDE activity are determined from the concentration-effect curves by means of non-linear regression.
Turning to `COc1ccc(OCC2CC2)c(-c2ccnc3c(C(=O)NC4CN(C(=O)C(C)O)CC4O)c(C)[nH]c23)c1` (mixture of isomers) [Example F33, Diastereomeric mixture of 7-[2-(Cyclopropylmethoxy)-5-methoxyphenyl]-N-{(3R*,4R*)-4-hydroxy-1-[(2S)-2-hydroxypropanoyl]pyrrolidin-3-yl}-2-methyl-1H-pyrrolo[3,2-b]pyridine-3-carboxamide and Diastereomeric mixture of 7-[2-(cyclopropylmethoxy)-5-methoxyphenyl]-N-{(3S*,4S*)-4-hydroxy-1-[(2S)-2-hydroxypropanoyl]pyrrolidin-3-yl}-2-methyl-1H-pyrrolo[3,2-b]pyridine-3-carboxamide], the IC50 was 1 to 10 nM.
Under `CC(=O)N1CC[C@@H](NC(=O)c2c(C)[nH]c3c(-c4cc(F)ccc4OCC4CC4)ccnc23)[C@H](O)C1` (relative stereo) [Example E28, N-[(3R*,4R*)-1-Acetyl-3-hydroxypiperidin-4-yl]-7-[2-(cyclopropylmethoxy)-5-fluorophenyl]-2-methyl-1H-pyrrolo[3,2-b]pyridine-3-carboxamide] stands 1 to 10 nM; under `CCC(=O)N1CC[C@@H](NC(=O)c2c(C)[nH]c3c(-c4cc(F)ccc4OCC4CC4)ccnc23)[C@H](O)C1` (relative stereo) [Example E29, 7-[2-(Cyclopropylmethoxy)-5-fluorophenyl]-N-[(3R*,4R*)-3-hydroxy-1-propanoylpiperidin-4-yl]-2-methyl-1H-pyrrolo[3,2-b]pyridine-3-carboxamide], 1 to 10 nM; under `COCC(=O)N1CC[C@@H](NC(=O)c2c(C)[nH]c3c(-c4cc(F)ccc4OCC4CC4)ccnc23)[C@H](O)C1` (relative stereo) [Example E30, 7-[2-(Cyclopropylmethoxy)-5-fluorophenyl]-N-[(3R*,4R*)-3-hydroxy-1-(methoxyacetyl)piperidin-4-yl]-2-methyl-1H-pyrrolo[3,2-b]pyridine-3-carboxamide], 1 to 10 nM.
Consider `COc1ccc(OCC2CC2)c(-c2ccnc3c(C(=O)N[C@@H]4CN(C(C)=O)C[C@H]4O)c(C)[nH]c23)c1` (relative stereo) [Example E49, N-[(3R*,4R*)-1-Acetyl-4-hydroxypyrrolidin-3-yl]-7-[2-(cyclopropylmethoxy)-5-methoxyphenyl]-2-methyl-1H-pyrrolo[3,2-b]pyridine-3-carboxamide], for which the IC50 is 1 to 10 nM.
With `CCC(=O)N1C[C@@H](O)[C@H](NC(=O)c2c(C)[nH]c3c(-c4cc(OC)ccc4OCC4CC4)ccnc23)C1` (relative stereo) [Example E50, 7-[2-(Cyclopropylmethoxy)-5-methoxyphenyl]-N-[(3R*,4R*)-4-hydroxy-1-propanoylpyrrolidin-3-yl]-2-methyl-1H-pyrrolo[3,2-b]pyridine-3-carboxamide], the IC50 is 1 to 10 nM.
Consider `COCC(=O)N1C[C@@H](O)[C@H](NC(=O)c2c(C)[nH]c3c(-c4cc(OC)ccc4OCC4CC4)ccnc23)C1` (relative stereo) [Example E51, 7-[2-(Cyclopropylmethoxy)-5-methoxyphenyl]-N-[(3R*,4R*)-4-hydroxy-1-(methoxyacetyl)pyrrolidin-3-yl]-2-methyl-1H-pyrrolo[3,2-b]pyridine-3-carboxamide], for which the IC50 was 1 to 10 nM.
In the case of `COc1cc(-c2ccnc3c(C(=O)N[C@@H]4CN(C(C)=O)C[C@H]4O)c(C)[nH]c23)c(OCC2CC2)cc1F` (relative stereo) [Example E70, N-[(3R*,4R*)-1-Acetyl-4-hydroxypyrrolidin-3-yl]-7-[2-(cyclopropylmethoxy)-4-fluoro-5-methoxyphenyl]-2-methyl-1H-pyrrolo[3,2-b]pyridine-3-carboxamide] it was under 1 nM.
Consider `CCC(=O)N1C[C@@H](O)[C@H](NC(=O)c2c(C)[nH]c3c(-c4cc(OC)c(F)cc4OCC4CC4)ccnc23)C1` (relative stereo) [Example E71, 7-[2-(Cyclopropylmethoxy)-4-fluoro-5-methoxyphenyl]-N-[(3R*,4R*)-4-hydroxy-1-propanoylpyrrolidin-3-yl]-2-methyl-1H-pyrrolo[3,2-b]pyridine-3-carboxamide], for which the IC50 is under 1 nM.
In the case of `COCC(=O)N1C[C@@H](O)[C@H](NC(=O)c2c(C)[nH]c3c(-c4cc(OC)c(F)cc4OCC4CC4)ccnc23)C1` (relative stereo) [Example E72, 7-[2-(Cyclopropylmethoxy)-4-fluoro-5-methoxyphenyl]-N-[(3R*,4R*)-4-hydroxy-1-(methoxyacetyl)pyrrolidin-3-yl]-2-methyl-1H-pyrrolo[3,2-b]pyridine-3-carboxamide] it was under 1 nM; in that of `COc1cc(-c2ccnc3c(C(=O)N[C@@H]4CCN(C(C)=O)C[C@H]4O)c(C)[nH]c23)c(OCC2CC2)cc1F` (relative stereo) [Example E73, N-[(3R*,4R*)-1-Acetyl-3-hydroxypiperidin-4-yl]-7-[2-(cyclopropylmethoxy)-4-fluoro-5-methoxyphenyl]-2-methyl-1H-pyrrolo[3,2-b]pyridine-3-carboxamide], under 1 nM; in that of `CCC(=O)N1CC[C@@H](NC(=O)c2c(C)[nH]c3c(-c4cc(OC)c(F)cc4OCC4CC4)ccnc23)[C@H](O)C1` (relative stereo) [Example E74, 7-[2-(Cyclopropylmethoxy)-4-fluoro-5-methoxyphenyl]-N-[(3R*,4R*)-3-hydroxy-1-propanoylpiperidin-4-yl]-2-methyl-1H-pyrrolo[3,2-b]pyridine-3-carboxamide], under 1 nM.
Take `COCC(=O)N1CC[C@@H](NC(=O)c2c(C)[nH]c3c(-c4cc(OC)c(F)cc4OCC4CC4)ccnc23)[C@H](O)C1` (relative stereo) [Example E75, 7-[2-(Cyclopropylmethoxy)-4-fluoro-5-methoxyphenyl]-N-[(3R*,4R*)-3-hydroxy-1-(methoxyacetyl)piperidin-4-yl]-2-methyl-1H-pyrrolo[3,2-b]pyridine-3-carboxamide]: the IC50 was under 1 nM.
Under `Cc1[nH]c2c(-c3cc(F)ccc3OCC3CC3)ccnc2c1C(=O)N[C@@H]1CCN(C(=O)CO)C[C@H]1O` (relative stereo) [Example F18, 7-[2-(Cyclopropylmethoxy)-5-fluorophenyl]-N-[rel.(3R,4R)-3-hydroxy-1-(hydroxyacetyl)piperidin-4-yl]-2-methyl-1H-pyrrolo[3,2-b]pyridine-3-carboxamide] stands 1 to 10 nM; under `COc1ccc(OCC2CC2)c(-c2ccnc3c(C(=O)N[C@@H]4CN(C(=O)CO)C[C@H]4O)c(C)[nH]c23)c1` (relative stereo) [Example F32, 7-[2-(Cyclopropylmethoxy)-5-methoxyphenyl]-N-[(3R*,4R*)-4-hydroxy-1-(hydroxyacetyl)pyrrolidin-3-yl]-2-methyl-1H-pyrrolo[3,2-b]pyridine-3-carboxamide], 1 to 10 nM.
Under `COc1cc(-c2ccnc3c(C(=O)N[C@@H]4CN(C(=O)CO)C[C@H]4O)c(C)[nH]c23)c(OCC2CC2)cc1F` (relative stereo) [Example F46, 7-[2-(Cyclopropylmethoxy)-4-fluoro-5-methoxyphenyl]-N-[(3R*,4R*)-4-hydroxy-1-(hydroxyacetyl)pyrrolidin-3-yl]-2-methyl-1H-pyrrolo[3,2-b]pyridine-3-carboxamide] stands under 1 nM.
Under `COc1cc(-c2ccnc3c(C(=O)N[C@@H]4CCN(C(=O)CO)C[C@H]4O)c(C)[nH]c23)c(OCC2CC2)cc1F` (relative stereo) [Example F48, 7-[2-(Cyclopropylmethoxy)-4-fluoro-5-methoxyphenyl]-N-[(3R*,4R*)-3-hydroxy-1-(hydroxyacetyl)piperidin-4-yl]-2-methyl-1H-pyrrolo[3,2-b]pyridine-3-carboxamide] stands under 1 nM; under `COCC(=O)N1CCC(NC(=O)c2c(C)[nH]c3c(-c4c(OCC5CC5)ccc5c4OCO5)ccnc23)CC1` [Example E03, 7-[5-(Cyclopropylmethoxy)-1,3-benzodioxol-4-yl]-N-[1-(methoxyacetyl)piperidin-4-yl]-2-methyl-1H-pyrrolo[3,2-b]pyridine-3-carboxamide], under 1 nM.
